These results are taken from patent publication US20020032183A1, “Use of (di-substituted-phenyl)-pyrimidinyl-imidazole derivatives as JNK-inhibitors” (priority 2000, published 2002).

In one test the target is T1, JNK3α1 (Homo sapiens, UniProt P53779).
T1 construct: Truncated JNK3α1 (amino acids 39-422) was expressed in E. coli; made in house; host or cells: E. coli
As to the kind of experiment: Biochemical determination of inhibition of JNK3α1. The conditions noted are these: truncated JNK3α1, 1 μM ATP, 0.5 μM GST-ATF2, 30° C., 30 min. As to the method:
Activation reactions were incubated at 30° C. for 2 h.
Enzyme inhibition studies were performed at 30° C. for 30 min with 0.5 μM GST-ATF2, 1 μM ATP, 1 nM activated JNK3α1 and compound ranging from 30 pM to 100 μM. Reactions were carried out in 100 μL volumes containing the final concentrations of the following: 25 mM HEPES (Sigma) pH 7.4; 10 mM MgCl2 (Sigma); 2 mM DTT (Sigma); 20 mM β-glycerophosphate (Sigma); 0.1 mM Na3VO4 (Sigma); 2 μCi [γ-^33P]ATP (2000 Ci/mmol; 1 Ci=37 GBq) (Amersham Pharmacia Biotech, Piscataway, N.J.). Reactions were stopped with 100 μL 100 mM EDTA/15 mM sodium pyrophosphate. Immobilon™-P 96-well plates (Millipore MAIPNOB™ 10, available from the Millipore Corp., Bedford, Mass.) were pretreated with 100 μL methanol, followed by 100 μL 15 mM sodium pyrophosphate. Fifty μL of the stopped reaction was spotted in triplicate on the Immobilon™-P 96-well plate. The samples were vacuum-filtered and washed three times each with 100 μL 75 mM H3PO4 to remove unincorporated [γ-^33P]ATP. After the third H3PO4 wash and a final filtration step to remove H3PO4, 50 μL of Microscint™-20 (Packard BioScience Ltd., Pangbourne, Berkshire, U.K.) was added to each well and samples were analyzed on a Packard Topcount™ liquid scintillation counter. IC50 values were determined by fitting the data to the equation for a four parameter logistic.

Test [1] has as its system Rat superior cervical ganglion neurons. As to the kind of experiment: Sympathetic neuronal survival assay (no NGF exposure; GAP-43 ELISA and cell counts). The format is cell-based. The conditions noted are these: NGF 1 ng/ml. On the procedure: Activation of c-jun-N-terminal kinase (JNK) has been implicated in apoptosis in sympathetic neurons. An inhibitor of JNK, Example 2, was tested for neuroprotective effects in two models of sympathetic neuronal cell death.
In the first model, ganglia were dissociated and plated directly into culture plates in the presence of compound for 48 hours, then fixed and survival assayed using an ELISA for GAP-43. This model will hereafter be referred to as the ‘survival assay’.
Ganglia were enzymatically dissociated using 0.25% trypsin for 45 minutes. The trypsin was then inhibited using Dulbecco's MEM (DMEM) supplemented with 10% fetal bovine serum, and the cells mechanically triturated using a pipette tip to form a single cell suspension. Neurons in the suspension were counted using a haemocytometer, and plated at a density of 3000-5000 neurons per well in poly-D-lysine and laminin coated 96 well tissue culture clusters in DMEM supplemented with B27 serum substitute. Cultures were then incubated at 37° C./5% CO2. One hour following plating, cultures were either treated with NGF 25 ng/ml or with L-790,984 at a range of concentrations for the NGF deprivation and survival assays respectively.
Cultures for the NGF deprivation assay were returned to the incubator for 4 days. Following this, the medium was aspirated, plates washed once with DMEM/B27, and the cultures treated with Example 2 at concentrations ranging from 1 nM to 10 μM, together with an anti-NGF blocking antibody at 250 ng/ml. Cultures were then returned to the incubator for a further 72 hours prior to fixation and survival quantification. Cultures treated with Example 2 immediately for the survival assay were returned to the incubator for 48 hours; cultures were then fixed and survival quantified using the GAP-43 ELISA.
Cultures were fixed by the addition of an equal volume 4% paraformaldehyde to each well for 10 minutes; this was then aspirated, and replaced by a further volume of 4% paraformaldehyde for a further 20 minutes at room temperature. Plates were then washed three times with PBS/0.3% TX100, and non-specific binding sites blocked by the addition of 5% normal horse serum (NHS) in PBS/0.3% TX100. Plates were incubated at room temperature for one hour, then the blocking serum was aspirated without washing and replaced with primary antibody. The primary antibody used was a mouse monoclonal antibody raised against Growth Associated Protein 43 (Sigma), prepared at a dilution of 1:500 in PBS/0.3% TX100/5% NHS. Primary antibody was added to all sample wells, with four control wells returned to blocking serum to act as minus primary control. Plates were then refrigerated overnight at 4° C. The next day, plates were washed three times with PBS/0.3 TX100 and secondary antibody added. The secondary antibody used was peroxidase conjugated sheep anti-mouse IgG, and was added at a dilution of 1:1000 in PBS/0.3% TX100/5% NHS. Plates were incubated for 1 hour at room temperature, then washed three times with PBS/0.3% TX100, and K-Blue insoluble peroxidase substrate added for 30 minutes at room temperature. The optical density of the plates was then read at 650 nm, and the survival of neurons calculated and expressed as percentage of the control response.
Cell counts were performed on one sample plate for each model of sympathetic neuronal cell death, by the addition of a tertiary antibody to the plate, followed by avidin-biotin complex and an insoluble peroxidase substrate. Following quantification of optical density, plates were washed three times in PBS/0.3% TX100, and non-specific sites blocked using PBS/0.3% TX100/5% normal rabbit serum (“NRS”). Plates were incubated for one hour at room temperature, then the blocking serum was aspirated and replaced with biotinylated rabbit anti-sheep IgG at a dilution of 1:500 in PBS/0.3% TX10O/5% NRS. […]

Counter-ions that a name gives are not always drawn.

T1 sequence (P53779 39-422 isoform P53779-2): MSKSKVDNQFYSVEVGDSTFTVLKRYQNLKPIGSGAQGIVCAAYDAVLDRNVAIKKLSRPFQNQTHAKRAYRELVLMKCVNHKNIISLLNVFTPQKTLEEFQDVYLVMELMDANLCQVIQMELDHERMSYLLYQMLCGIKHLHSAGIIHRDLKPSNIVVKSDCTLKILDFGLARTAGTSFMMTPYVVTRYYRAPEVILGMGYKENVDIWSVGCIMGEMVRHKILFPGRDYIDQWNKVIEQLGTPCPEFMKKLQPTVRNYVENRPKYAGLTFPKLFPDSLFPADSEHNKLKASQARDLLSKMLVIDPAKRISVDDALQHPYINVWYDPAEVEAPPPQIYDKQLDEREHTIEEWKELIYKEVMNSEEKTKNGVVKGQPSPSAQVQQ

In the case of `CCCn1c(C2CCNCC2)nc(-c2ccc(Cl)c(Cl)c2)c1-c1ccnc(NC2CC2)n1` [Example 1, Cyclopropyl-{4-[5-(3,4-dichlorophenyl)-2-piperidin-4-yl-3-propyl-3H-imidazol-4-yl]-pyrimidin-2-yl}amine], the IC50 at JNK3α1 was 8 nM.
In the case of `Clc1ccc(-c2nc(C3CCNCC3)n(CC3CC3)c2-c2ccnc(NC3CC3)n2)cc1Cl` [Example 7, Cyclopropyl-{4-[3-cyclopropylmethyl-5-(3,4-dichlorophenyl)-2-piperidin-4-yl-3H-imidazol-4-yl]-pyrimidin-2-yl}amine bis trifluoroacetic acid salt], half-maximal inhibition on JNK3α1 (IC50) was put at 4 nM.

B1: NGF: NGF at 1 ng/ml, comparison group in the sympathetic neuronal survival assay; these neurons are NGF dependent (protein, UniProt P01139 122-241, looked up)
Beta-nerve growth factor: SSTHPVFHMGEFSVCDSVSVWVGDKTTATDIKGKEVTVLAEVNINNSVFRQYFFETKCRASNPVESGCRGIDSKHWNSYCTTTHTFVKALTTDEKQAAWRFIRIDTACVCVLSRKATRRG
B1: the “Survival, ELISA Data Mean” value in test [1] (GAP-43 ELISA) was 618.55. The “Survival, Cell Counts Mean” value in test [1] (immunostained neurons per well) amounted to 587.00.
